ChEMBL document CHEMBL5131452, “Cell-based screening of extracts of natural sources to search for inhibitors of the ubiquitin-proteasome system and identification of proteasome inhibitors from the fungus Remotididymella sp” (Bioorg Med Chem Lett, 2022)
pIC50: −log10 of the molar value. Active and inactive are the calls of the source. No cut-off for these calls is given here.

Experiments:
HeLa [1] = test: Cytotoxicity against human HeLa cells expressing ODD-luciferase at 16 uM by MTT assay; assay type: toxicity, cell-based
HeLa [2] = test: Inhibition of UPS-mediated proteolysis in human HeLa cells expressing ODD-luciferase assessed as fold change in increase in luminescence at 2 uM using D-luciferin as substrate incubated for 4 hrs by luciferase reporter gene assay; assay type: cell-based
HeLa [3] = test: Inhibition of UPS-mediated proteolysis in human HeLa cells expressing ODD-luciferase assessed as increase in luminescence at 2 to 16 uM using D-luciferin as substrate incubated for 4 hrs by luciferase reporter gene assay; assay type: cell-based; conditions: dose 2-16 µM
HeLa [4] = test: Inhibition of UPS-mediated proteolysis in human HeLa cells assessed as increase in ubiquitinated proteins at 2 to 24 uM incubated for 24 hrs by western blot analysis; assay type: cell-based; conditions: dose 2-24 µM
[5] = target: T1, Proteasome Macropain subunit MB1 (Homo sapiens, UniProt P28074); test: Inhibition of human constitutive proteasome subunit beta type-5 in human erythrocytes using fluorogenic substrate by UV-spectrometry; assay type: cell-based, Erythrocyte
T1 sequence (P28074 whole entry): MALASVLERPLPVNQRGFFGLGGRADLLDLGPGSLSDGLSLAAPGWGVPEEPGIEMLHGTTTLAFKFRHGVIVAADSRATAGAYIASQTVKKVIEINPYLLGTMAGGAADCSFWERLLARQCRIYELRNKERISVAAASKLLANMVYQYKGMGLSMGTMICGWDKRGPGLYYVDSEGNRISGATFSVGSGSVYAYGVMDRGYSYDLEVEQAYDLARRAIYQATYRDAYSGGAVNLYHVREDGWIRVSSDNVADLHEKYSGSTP

[6] = target: T2, Proteasome subunit beta type-10 (Homo sapiens, UniProt P40306); test: Inhibition of human proteasome subunit beta type-2i using fluorogenic substrate by UV-spectrometry
T2 sequence (P40306 whole entry): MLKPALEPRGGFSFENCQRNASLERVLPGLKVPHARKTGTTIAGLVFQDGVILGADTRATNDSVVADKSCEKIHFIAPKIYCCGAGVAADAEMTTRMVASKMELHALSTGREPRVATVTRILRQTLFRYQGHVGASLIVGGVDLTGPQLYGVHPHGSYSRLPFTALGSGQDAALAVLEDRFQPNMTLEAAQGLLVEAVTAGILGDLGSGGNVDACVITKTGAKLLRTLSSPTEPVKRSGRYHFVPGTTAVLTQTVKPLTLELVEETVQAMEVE

[7] = target: T3, Proteasome subunit beta type-8 (Homo sapiens, UniProt P28062); test: Inhibition of human proteasome subunit beta type-5i using fluorogenic substrate by UV-spectrometry
T3 sequence (P28062 whole entry): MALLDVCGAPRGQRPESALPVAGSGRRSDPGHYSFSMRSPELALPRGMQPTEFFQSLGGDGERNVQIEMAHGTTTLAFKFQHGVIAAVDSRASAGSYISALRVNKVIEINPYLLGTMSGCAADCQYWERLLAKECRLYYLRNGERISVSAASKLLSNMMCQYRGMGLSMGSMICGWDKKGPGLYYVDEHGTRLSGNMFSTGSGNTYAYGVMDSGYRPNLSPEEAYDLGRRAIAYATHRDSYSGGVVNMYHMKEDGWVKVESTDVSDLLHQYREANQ

[8] = target: T4, Proteasome subunit beta type-9 (Homo sapiens, UniProt P28065); test: Inhibition of human proteasome subunit beta type-1i in using fluorogenic substrate by UV-spectrometry
T4 sequence (P28065 whole entry): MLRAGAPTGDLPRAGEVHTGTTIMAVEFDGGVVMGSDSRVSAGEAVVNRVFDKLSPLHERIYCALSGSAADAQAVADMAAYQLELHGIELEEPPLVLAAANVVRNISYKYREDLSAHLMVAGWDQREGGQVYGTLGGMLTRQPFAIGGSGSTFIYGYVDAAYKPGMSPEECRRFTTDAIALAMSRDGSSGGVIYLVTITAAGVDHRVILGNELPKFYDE

pIC50 [5]	pIC50 [6]	pIC50 [7]	pIC50 [8]	SMILES	Activity (HeLa [1])	fold change (FC) (HeLa [2])	inhibition (HeLa [3])	inhibition (HeLa [4])
–	–	–	–	CCC(C)/C=C(\C)C1=Cc2cc3c(c(O)c2CO1)C(=O)C(=O)C(OC)=C3 (centres undefined)	Toxic	2.5	Active	Active
4.80	4.37	4.40	< 4.30	CCC(C)/C=C(\C)c1cc2c(cn1)C(=O)c1c(cc(OC)c(O)c1O)C2=O (centres undefined)	–	–	–	–
4.66	4.48	4.70	< 4.30	CCC(C)/C=C(\C)c1cc2c(cn1)C(=O)C1=C(N)C(=O)C(OC)=CC1=C2 (centres undefined)	Toxic	–	Active	–
4.34	4.52	4.30	< 4.30	CCC(C)/C=C(\C)C1=Cc2cc3c(c(O)c2CO1)C(=O)C(O)(CC(C)=O)C(OC)=C3 (centres undefined)	–	–	Active	–
